This note sets out measurements from patent US8293768B2, “Organic compounds” (Novartis AG, priority 2006, dated 2012).

SMILES strings stand for the structures.

Broadly, the melting point is the temperature, or range, at which the solid turns liquid. `Cc1nc(N2CCCN(Cc3ccc(F)cc3)C2=O)sc1C(=O)NCc1cccnc1` [Example 32.25, 2-(3-(4-fluorobenzyl)-2-oxotetrahydropyrimidin-1(2H)-yl)-4-methyl-N-(pyridin-3-ylmethyl)thiazole-5-carboxamide] displayed a melting point of 48 to 50 °C.
The molecule `Cc1nc(N2CCCN(CC3CC3)C2=O)sc1C(=O)NCc1cccnc1` [Example 32.26, 2-(3-(cyclopropylmethyl)-2-oxotetrahydropyrimidin-1(2H)-yl)-4-methyl-N-(pyridin-3-ylmethyl)thiazole-5-carboxamide] gave a melting point of 142 to 145 °C.
Consider `Cc1nc(N2CCN(Cc3ccncc3)C2=O)sc1C(=O)NCc1cccnc1` [Example 33, 4-methyl-2-(2-oxo-3-(pyridin-4-ylmethyl)imidazolidin-1-yl)-N-(pyridin-3-ylmethyl)thiazole-5-carboxamide], for which the melting point was in the range of 233 to 235 °C.
As for `Cc1nc(N2CCN(C(=O)c3ccc(F)cc3)C2=O)sc1C(=O)NCc1ccccc1` [Example 34, N-benzyl-2-(3-(4-fluorobenzoyl)-2-oxoimidazolidin-1-yl)-4-methylthiazole-5-carboxamide], the figure is 130 to 132 °C; as for `Cc1nc(N2CCN(Cc3ccc(C(F)(F)F)cc3)C2=O)sc1-c1cc[nH]n1` [Example 38, 1-(4-methyl-5-(1H-pyrazol-3-yl)thiazol-2-yl)-3-(4-(trifluoromethyl)-benzyl)imidazolidin-2-one], 212 to 213 °C.
In turn, `Cc1cc(-c2sc(N3CCN(Cc4ccc(C(F)(F)F)cc4)C3=O)nc2C)n[nH]1` [Example 38.2, 1-(4-methyl-5-(5-methyl-1H-pyrazol-3-yl)thiazol-2-yl)-3-(4-(trifluoromethyl)benzyl)imidazolidin-2-one] returned a melting point of 238 to 239 °C.
Next, `Cc1cc(-c2sc(N3CCN(Cc4ccc(C(F)(F)F)cc4)C3=O)nc2C)on1` [Example 38.3, 1-(4-methyl-5-(3-methylisoxazol-5-yl)thiazol-2-yl)-3-(4-(trifluoromethyl)benzyl)imidazolidin-2-one]: 201 to 203 °C; `Cc1cc(-c2sc(N3CCN(Cc4ccc(C(=O)N5CCCCC5)cc4)C3=O)nc2C)n[nH]1` [Example 40, 1-(4-methyl-5-(3-methyl-1H-pyrazol-5-yl)thiazol-2-yl)-3-(4-(piperidine-1-carbonyl)benzyl)imidazolidin-2-one]: 182 to 183 °C.
`Cc1cc(-c2sc(N3CCN(Cc4ccc(F)cc4)C3=O)nc2C)n[nH]1` [Example 40.1, 1-(4-fluorobenzyl)-3-(4-methyl-5-(5-methyl-1H-pyrazol-3-yl)thiazol-2-yl)imidazolidin-2-one] registered a melting point of 218 to 221 °C.
For `CNC(=O)c1ccc(CN2CCN(c3nc(C)c(-c4cc(C)[nH]n4)s3)C2=O)cc1` [Example 40.2, N-methyl-4-((3-(4-methyl-5-(3-methyl-1H-pyrazol-5-yl)thiazol-2-yl)-2-oxoimidazolidin-1-yl)methyl)benzamide], the melting point fell in the range of 236 to 238 °C.
The molecule `Cc1nc(N2CCN(Cc3ccc(C(F)(F)F)cc3)C2=O)sc1CO` [Example 41, 1-(5-(hydroxymethyl)-4-methylthiazol-2-yl)-3-(4-(trifluoromethyl)benzyl)imidazolidin-2-one] displayed a melting point of 153 to 154 °C.
Next, `Cc1nc(N2CCN(Cc3ccc(C(F)(F)F)cc3)C2=O)sc1-c1cnco1` [Example 43, 1-(4-methyl-5-(oxazol-5-yl)thiazol-2-yl)-3-(4-(trifluoromethyl)benzyl)-imidazolidin-2-one]: 160 to 162 °C; `Cc1nc(-n2cnn(CCNCc3ccc(F)cc3)c2=O)sc1C(=O)NCc1cccnc1` [Example 47, 2-(1-(2-(4-fluorobenzylamino)ethyl)-5-oxo-1H-1,2,4-triazol-4(5H)-yl)-4-methyl-N-(pyridin-3-ylmethyl)thiazole-5-carboxamide]: 106 to 107 °C; `Cc1nc(-n2cnn(CCNc3ccc(F)cc3)c2=O)sc1C(=O)NCc1cccnc1` [Example 47.1, 2-(1-(2-(4-fluorophenylamino)ethyl)-5-oxo-1H-1,2,4-triazol-4(5H)-yl)-4-methyl-N-(pyridin-3-ylmethyl)thiazole-5-carboxamide]: 163 to 164 °C.
The molecule `Cc1nc(-n2cnn(CCOC(=O)NCc3ccc(F)cc3)c2=O)sc1C(=O)NCc1cccnc1` [Example 48, 2-(4-(4-methyl-5-(pyridin-3-ylmethylcarbamoyl)thiazol-2-yl)-5-oxo-4,5-dihydro-1H-1,2,4-triazol-1-yl)ethyl 4-fluorobenzylcarbamate] had a melting point of 149 to 150 °C.
`Cc1nc(-n2cnn(CCOCc3ccc(F)cc3)c2=O)sc1C(=O)NCc1cccnc1` [Example 49, 2-(1-(2-(4-fluorobenzyloxy)ethyl)-5-oxo-1H-1,2,4-triazol-4(5H)-yl)-4-methyl-N-(pyridin-3-ylmethyl)thiazole-5-carboxamide] registered a melting point of 235 to 236 °C.
As to `Cc1cc(N2CCN(CCOc3ccccc3)C2=O)sc1C(=O)NCc1cccnc1` [Example 55, 3-methyl-5-(2-oxo-3-(2-phenoxyethyl)imidazolidin-1-yl)-N-(pyridin-3-ylmethyl)thiophene-2-carboxamide], the melting point was in the range of 78 to 80 °C.
Next, `Cc1cc(N2CCN(CC(=O)c3ccccc3)C2=O)sc1C(=O)NCc1cccnc1` [Example 55.1, 3-methyl-5-(2-oxo-3-(2-oxo-2-phenylethyl)imidazolidin-1-yl)-N-(pyridin-3-ylmethyl)thiophene-2-carboxamide]: 174 to 176 °C.
As to `Cc1cc(N2CCN(Cc3ccc(C(N)=O)cc3)C2=O)sc1C(=O)NCc1cccnc1` [Example 55.2, 5-(3-(4-carbamoylbenzyl)-2-oxoimidazolidin-1-yl)-3-methyl-N-(pyridin-3-ylmethyl)thiophene-2-carboxamide], the melting point is 188 °C (dec.).
For `Cc1cc(N2CCN(Cc3ccc(F)cc3)C2=O)sc1C(=O)NCc1nc2ccccc2[nH]1` [Example 55.4, N-((1H-benzo[d]imidazol-2-yl)methyl)-5-(3-(4-fluorobenzyl)-2-oxoimidazolidin-1-yl)-3-methylthiophene-2-carboxamide], the melting point lay within 265 to 267 °C.
In turn, `Cc1cc(N2CCN(Cc3ccc(F)cc3)C2=O)sc1C(=O)NCc1cccs1` [Example 55.5, 5-(3-(4-fluorobenzyl)-2-oxoimidazolidin-1-yl)-3-methyl-N-(thiophen-2-ylmethyl)thiophene-2-carboxamide] displayed a melting point of 128 to 131 °C.
Next, `Cc1cc(N2CCN(Cc3ccc(C(=O)O)cc3)C2=O)sc1C(=O)NCc1cccnc1` [Example 56, 4-((3-(4-methyl-5-(pyridin-3-ylmethylcarbamoyl)thiophen-2-yl)-2-oxoimidazolidin-1-yl)methyl)benzoic acid]: 120 °C (dec.).
On to `Cc1cc(N2CCN(CC(O)c3ccccc3)C2=O)sc1C(=O)NCc1cccnc1` (stereo not drawn) [Example 57, 5-(3-(2-hydroxy-2-phenylethyl)-2-oxoimidazolidin-1-yl)-3-methyl-N-(pyridin-3-ylmethyl)thiophene-2-carboxamide], for which the melting point was 75 °C (dec.).
The molecule `Cc1cc(N2CCN(Cc3ccc(N)cc3)C2=O)sc1C(=O)NCc1cccnc1` [Example 58, 5-(3-(4-aminobenzyl)-2-oxoimidazolidin-1-yl)-3-methyl-N-(pyridin-3-ylmethyl)thiophene-2-carboxamide] yielded a melting point of 118 to 120 °C.
